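Step 1: Grow cells in 96-well plates. Step 2: Expose to compound for 48 hours at 5 concentrations. Step 3: Interpolate endpoints linearly; if unreached, use highest concentration. Here, GI50 denotes the concentration required for 50% inhibition of growth. The concentration for full growth arrest is given as TGI.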
How the values were obtained:
Experiment in all cases: growth of human tumour cells (NCI), 48 h
[1] = system: NCI-H226 lung
[2] = system: NCI-H23 lung
[3] = system: NCI-H460 lung
[4] = system: NCI-H522 lung
[5] = system: NCI/ADR-RES ovarian
[6] = system: OVCAR-3 ovarian
[7] = system: OVCAR-4 ovarian
[8] = system: OVCAR-5 ovarian
[9] = system: OVCAR-8 ovarian
[10] = system: PC-3 prostate
[11] = system: RPMI-8226 leukemia
[12] = system: SF-268 CNS
[13] = system: SF-295 CNS
[14] = system: SF-539 CNS
[15] = system: SK-MEL-28 melanoma
[16] = system: SK-MEL-5 melanoma
[17] = system: SK-OV-3 ovarian
[18] = system: SN12C renal
[19] = system: SNB-19 CNS
[20] = system: SNB-75 CNS
[21] = system: SR leukemia
[22] = system: SW-620 colon
[23] = system: T-47D breast
[24] = system: TK-10 renal
[25] = system: U251 CNS
[26] = system: UACC-257 melanoma
[27] = system: UACC-62 melanoma
[28] = system: UO-31 renal

`CC12CC[C@@H]3c4cc5c(cc4CC[C@H]3[C@@H]1CCC2O)oc1cc(F)ccc15` (stereo partly specified) showed a GI50 [1] of 14.9 µM, a TGI [1] of 53 µM and a GI50 [2] of 26.1 µM. For the same compound, the TGI [2] was 99.5 µM, the GI50 [3] was 15.2 µM and the TGI [3] was 36.3 µM. The GI50 [4] was 23.2 µM, the TGI [4] was > 100 µM and the GI50 [5] was 18.6 µM. It also gave a TGI [5] of 55.5 µM, a GI50 [6] of 19.1 µM and a TGI [6] of 43.3 µM. The GI50 [7] was 17 µM, the TGI [7] was 55.6 µM and the GI50 [8] was 24.8 µM. The TGI [8] was > 100 µM, the GI50 [9] was 20 µM and the TGI [9] was 62.6 µM. The GI50 [10] was 17.3 µM, the TGI [10] was 43.2 µM and the GI50 [11] was 14.6 µM. The TGI [11] was > 100 µM, the GI50 [12] was 18.8 µM and the TGI [12] was 62.8 µM. For the same compound, the GI50 [13] was 18.3 µM, the TGI [13] was 40.2 µM and the GI50 [14] was 22.7 µM. For the same compound, the TGI [14] was 54.7 µM, the GI50 [15] was 20.2 µM and the TGI [15] was 58.8 µM. It also gave a GI50 [16] of 18.8 µM, a TGI [16] of 36 µM and a GI50 [17] of 21.5 µM. It also gave a TGI [17] of 52.1 µM, a GI50 [18] of 19 µM and a TGI [18] of 42.5 µM. The GI50 [19] was 19 µM, the TGI [19] was 40.9 µM and the GI50 [20] was 15.5 µM. For the same compound, the TGI [20] was 35.5 µM, the GI50 [21] was 15.9 µM and the TGI [21] was 31 µM. The GI50 [22] was 25.6 µM, the TGI [22] was 78.9 µM and the GI50 [23] was 12.3 µM. It also gave a TGI [23] of 52.6 µM, a GI50 [24] of 15.6 µM and a TGI [24] of 33.9 µM. For the same compound, the GI50 [25] was 14.1 µM, the TGI [25] was 28.6 µM and the GI50 [26] was 21.6 µM. For the same compound, the TGI [26] was 74.8 µM, the GI50 [27] was 24.4 µM and the TGI [27] was > 100 µM. For the same compound, the GI50 [28] was 24.3 µM and the TGI [28] was 68 µM.

— PubChem BioAssay (NCI)
